Test results: ChEMBL document CHEMBL4507260 (2021)

Legend:
Conditions in all cases: Compound concentration 1000.0 nM
[1] = molecular target: RAC-beta serine/threonine-protein kinase (Homo sapiens) (UniProt P31751)
[2] = molecular target: Misshapen-like kinase 1 (Homo sapiens) (UniProt Q8N4C8)
[3] = molecular target: Rhodopsin kinase GRK7 (Homo sapiens) (UniProt Q8WTQ7)
[4] = molecular target: Cytoplasmic tyrosine-protein kinase BMX (Homo sapiens) (UniProt P51813)
[5] = molecular target: Serine/threonine-protein kinase PAK 3 (Homo sapiens) (UniProt O75914)
[6] = system: Tyrosine-protein kinase ABL1 (Homo sapiens), P00519 [Q252H]
[7] = molecular target: Serine/threonine-protein kinase PLK2 (Homo sapiens) (UniProt Q9NYY3)
[8] = molecular target: Mast/stem cell growth factor receptor Kit (Homo sapiens) (UniProt P10721)
[9] = molecular target: Serine/threonine-protein kinase 38-like (Homo sapiens) (UniProt Q9Y2H1)
[10] = system: Tyrosine-protein kinase ABL1 (Homo sapiens), P00519 [E255K]
[11] = molecular target: Dual specificity tyrosine-phosphorylation-regulated kinase 1B (Homo sapiens) (UniProt Q9Y463)
[12] = molecular target: Cyclin-dependent kinase 2 homolog (Plasmodium falciparum (isolate 3D7)) (UniProt P61075)
[13] = molecular target: cAMP-dependent protein kinase catalytic subunit beta (Homo sapiens) (UniProt P22694)
[14] = molecular target: Hormonally up-regulated neu tumor-associated kinase (Homo sapiens) (UniProt P57058)
[15] = molecular target: Receptor-interacting serine/threonine-protein kinase 4 (Homo sapiens) (UniProt P57078)
[16] = molecular target: Mitogen-activated protein kinase 14 (Homo sapiens) (UniProt Q16539)
[17] = molecular target: Interferon-induced, double-stranded RNA-activated protein kinase (Homo sapiens) (UniProt P19525)
[18] = molecular target: Casein kinase I isoform epsilon (Homo sapiens) (UniProt P49674)
[19] = molecular target: Mitogen-activated protein kinase kinase kinase 19 (Homo sapiens) (UniProt Q56UN5)
[20] = molecular target: Mitogen-activated protein kinase 4 (Homo sapiens) (UniProt P31152)
[21] = molecular target: Proto-oncogene tyrosine-protein kinase ROS (Homo sapiens) (UniProt P08922)
[22] = molecular target: Serine/threonine-protein kinase LATS1 (Homo sapiens) (UniProt O95835)
[23] = molecular target: Tyrosine-protein kinase JAK2 (Homo sapiens) (UniProt O60674)
[24] = molecular target: Tyrosine-protein kinase TXK (Homo sapiens) (UniProt P42681)
[25] = molecular target: Serine/threonine-protein kinase 33 (Homo sapiens) (UniProt Q9BYT3)
[26] = molecular target: Tyrosine-protein kinase SYK (Homo sapiens) (UniProt P43405)
[27] = molecular target: Protein kinase C theta type (Homo sapiens) (UniProt Q04759)
[28] = molecular target: Serine/threonine-protein kinase tousled-like 1 (Homo sapiens) (UniProt Q9UKI8)
[29] = molecular target: Phosphatidylinositol 4,5-bisphosphate 3-kinase catalytic subunit beta isoform (Homo sapiens) (UniProt P42338)
[30] = molecular target: Fibroblast growth factor receptor 2 (Homo sapiens) (UniProt P21802)
[31] = molecular target: Serine/threonine-protein kinase MRCK gamma (Homo sapiens) (UniProt Q6DT37)
[32] = molecular target: Ribosomal protein S6 kinase alpha-6 (Homo sapiens) (UniProt Q9UK32)
[33] = molecular target: Serine/threonine-protein kinase RIO1 (Homo sapiens) (UniProt Q9BRS2)
[34] = molecular target: Tyrosine-protein kinase FRK (Homo sapiens) (UniProt P42685)
[35] = molecular target: 5'-AMP-activated protein kinase catalytic subunit alpha-1 (Homo sapiens) (UniProt Q13131)
[36] = molecular target: Dual specificity mitogen-activated protein kinase kinase 5 (Homo sapiens) (UniProt Q13163)
[37] = molecular target: Serine/threonine-protein kinase D3 (Homo sapiens) (UniProt O94806)
[38] = molecular target: Dual specificity protein kinase CLK1 (Homo sapiens) (UniProt P49759)
[39] = molecular target: Serine/threonine-protein kinase Nek5 (Homo sapiens) (UniProt Q6P3R8)
[40] = molecular target: Tyrosine-protein kinase ZAP-70 (Homo sapiens) (UniProt P43403)
[41] = system: Phosphatidylinositol 4,5-bisphosphate 3-kinase catalytic subunit alpha isoform (Homo sapiens), P42336 [I800L]
[42] = molecular target: Mitogen-activated protein kinase kinase kinase 5 (Homo sapiens) (UniProt Q99683)
[43] = molecular target: High affinity nerve growth factor receptor (Homo sapiens) (UniProt P04629)
[44] = system: Tyrosine-protein kinase ABL1 (Homo sapiens), P00519 [F317I]
[45] = molecular target: Serine/threonine-protein kinase ULK2 (Homo sapiens) (UniProt Q8IYT8)

Measured: residual activity

Ribosomal protein S6 kinase alpha-6 (Homo sapiens), sequence (Q9UK32 whole entry): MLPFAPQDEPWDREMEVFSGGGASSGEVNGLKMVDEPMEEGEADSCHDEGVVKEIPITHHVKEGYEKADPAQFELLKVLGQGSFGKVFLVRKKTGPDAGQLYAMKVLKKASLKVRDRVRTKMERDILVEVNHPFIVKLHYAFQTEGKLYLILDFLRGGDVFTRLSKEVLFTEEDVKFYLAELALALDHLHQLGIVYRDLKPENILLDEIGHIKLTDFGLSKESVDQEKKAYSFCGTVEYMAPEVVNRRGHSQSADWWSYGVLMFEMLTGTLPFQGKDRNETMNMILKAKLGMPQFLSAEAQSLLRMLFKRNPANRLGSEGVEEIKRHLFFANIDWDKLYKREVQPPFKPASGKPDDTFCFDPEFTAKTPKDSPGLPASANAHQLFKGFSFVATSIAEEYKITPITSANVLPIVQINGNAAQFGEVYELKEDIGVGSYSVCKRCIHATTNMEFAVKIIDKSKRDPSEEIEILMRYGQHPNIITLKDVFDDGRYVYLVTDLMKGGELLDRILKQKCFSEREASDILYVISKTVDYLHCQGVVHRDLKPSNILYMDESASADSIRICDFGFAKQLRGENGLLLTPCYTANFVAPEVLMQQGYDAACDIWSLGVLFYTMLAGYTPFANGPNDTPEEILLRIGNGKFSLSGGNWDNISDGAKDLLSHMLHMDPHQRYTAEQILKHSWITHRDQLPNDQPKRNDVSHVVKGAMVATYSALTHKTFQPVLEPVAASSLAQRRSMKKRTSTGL
Serine/threonine-protein kinase PLK2 (Homo sapiens), sequence (Q9NYY3 whole entry, looked up): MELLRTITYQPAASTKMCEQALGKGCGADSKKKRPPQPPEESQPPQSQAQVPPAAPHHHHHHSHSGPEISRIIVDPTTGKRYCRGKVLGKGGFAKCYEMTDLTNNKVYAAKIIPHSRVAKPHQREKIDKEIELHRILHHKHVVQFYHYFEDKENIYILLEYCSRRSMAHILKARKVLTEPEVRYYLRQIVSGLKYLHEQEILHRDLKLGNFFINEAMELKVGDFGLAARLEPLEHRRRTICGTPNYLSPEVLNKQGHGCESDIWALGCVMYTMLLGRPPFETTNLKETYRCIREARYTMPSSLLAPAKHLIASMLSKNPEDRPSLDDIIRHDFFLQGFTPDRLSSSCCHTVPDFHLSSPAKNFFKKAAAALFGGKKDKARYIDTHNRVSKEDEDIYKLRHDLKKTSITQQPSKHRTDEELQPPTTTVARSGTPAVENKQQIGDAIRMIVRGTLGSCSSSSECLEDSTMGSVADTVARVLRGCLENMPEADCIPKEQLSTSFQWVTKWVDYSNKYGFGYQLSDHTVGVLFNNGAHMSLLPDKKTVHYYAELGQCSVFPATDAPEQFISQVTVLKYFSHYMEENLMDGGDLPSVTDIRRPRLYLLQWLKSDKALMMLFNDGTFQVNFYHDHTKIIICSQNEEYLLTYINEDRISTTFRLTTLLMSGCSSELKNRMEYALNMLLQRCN
Mitogen-activated protein kinase kinase kinase 5 (Homo sapiens), sequence (Q99683 whole entry): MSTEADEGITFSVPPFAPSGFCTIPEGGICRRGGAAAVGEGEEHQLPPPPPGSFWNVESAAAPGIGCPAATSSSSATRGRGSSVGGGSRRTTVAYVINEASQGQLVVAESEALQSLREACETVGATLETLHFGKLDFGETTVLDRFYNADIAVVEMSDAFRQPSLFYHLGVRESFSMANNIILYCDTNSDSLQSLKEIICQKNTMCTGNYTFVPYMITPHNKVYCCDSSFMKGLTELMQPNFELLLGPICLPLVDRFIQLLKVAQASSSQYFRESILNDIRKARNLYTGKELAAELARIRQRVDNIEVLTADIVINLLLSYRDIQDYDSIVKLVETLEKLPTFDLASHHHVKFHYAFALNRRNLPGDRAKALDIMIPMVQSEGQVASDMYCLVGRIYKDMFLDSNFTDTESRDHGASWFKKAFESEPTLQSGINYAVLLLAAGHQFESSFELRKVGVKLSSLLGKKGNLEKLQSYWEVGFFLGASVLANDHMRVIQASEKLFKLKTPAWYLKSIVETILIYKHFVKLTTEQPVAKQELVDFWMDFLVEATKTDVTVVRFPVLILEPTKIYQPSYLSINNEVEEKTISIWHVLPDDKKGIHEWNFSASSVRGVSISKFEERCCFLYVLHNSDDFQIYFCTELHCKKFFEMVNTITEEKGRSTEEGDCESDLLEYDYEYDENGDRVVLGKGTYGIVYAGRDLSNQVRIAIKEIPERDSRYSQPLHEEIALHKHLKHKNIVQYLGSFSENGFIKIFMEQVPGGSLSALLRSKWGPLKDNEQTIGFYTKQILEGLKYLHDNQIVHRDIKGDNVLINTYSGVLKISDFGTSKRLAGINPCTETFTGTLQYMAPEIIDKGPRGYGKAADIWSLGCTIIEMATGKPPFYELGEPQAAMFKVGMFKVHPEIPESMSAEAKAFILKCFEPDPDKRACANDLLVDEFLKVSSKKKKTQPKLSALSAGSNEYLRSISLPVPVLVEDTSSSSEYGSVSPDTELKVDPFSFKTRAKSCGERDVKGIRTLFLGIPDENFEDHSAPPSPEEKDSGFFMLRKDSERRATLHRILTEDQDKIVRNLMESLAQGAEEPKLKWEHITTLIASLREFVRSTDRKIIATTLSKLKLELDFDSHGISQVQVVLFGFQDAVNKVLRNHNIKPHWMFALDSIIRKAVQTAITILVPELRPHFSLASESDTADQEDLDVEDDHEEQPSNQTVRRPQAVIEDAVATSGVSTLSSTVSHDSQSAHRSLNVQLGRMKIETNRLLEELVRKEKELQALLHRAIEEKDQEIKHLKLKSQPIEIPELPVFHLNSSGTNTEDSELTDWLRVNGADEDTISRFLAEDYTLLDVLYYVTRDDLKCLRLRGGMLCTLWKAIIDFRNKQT
Serine/threonine-protein kinase RIO1 (Homo sapiens), sequence (Q9BRS2 whole entry): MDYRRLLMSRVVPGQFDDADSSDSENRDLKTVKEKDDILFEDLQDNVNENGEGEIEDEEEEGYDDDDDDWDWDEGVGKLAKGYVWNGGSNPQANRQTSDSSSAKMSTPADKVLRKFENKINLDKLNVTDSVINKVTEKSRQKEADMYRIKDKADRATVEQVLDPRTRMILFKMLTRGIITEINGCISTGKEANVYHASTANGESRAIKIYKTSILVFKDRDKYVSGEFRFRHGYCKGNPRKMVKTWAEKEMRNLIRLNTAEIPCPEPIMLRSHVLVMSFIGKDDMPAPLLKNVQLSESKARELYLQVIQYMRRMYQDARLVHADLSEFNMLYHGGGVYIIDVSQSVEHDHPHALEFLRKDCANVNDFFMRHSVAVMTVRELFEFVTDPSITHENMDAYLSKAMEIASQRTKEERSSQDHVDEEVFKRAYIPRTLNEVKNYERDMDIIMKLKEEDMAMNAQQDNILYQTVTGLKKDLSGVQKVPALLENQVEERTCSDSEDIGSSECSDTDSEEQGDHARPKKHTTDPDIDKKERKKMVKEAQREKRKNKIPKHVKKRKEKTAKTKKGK
Serine/threonine-protein kinase MRCK gamma (Homo sapiens), sequence (Q6DT37 whole entry): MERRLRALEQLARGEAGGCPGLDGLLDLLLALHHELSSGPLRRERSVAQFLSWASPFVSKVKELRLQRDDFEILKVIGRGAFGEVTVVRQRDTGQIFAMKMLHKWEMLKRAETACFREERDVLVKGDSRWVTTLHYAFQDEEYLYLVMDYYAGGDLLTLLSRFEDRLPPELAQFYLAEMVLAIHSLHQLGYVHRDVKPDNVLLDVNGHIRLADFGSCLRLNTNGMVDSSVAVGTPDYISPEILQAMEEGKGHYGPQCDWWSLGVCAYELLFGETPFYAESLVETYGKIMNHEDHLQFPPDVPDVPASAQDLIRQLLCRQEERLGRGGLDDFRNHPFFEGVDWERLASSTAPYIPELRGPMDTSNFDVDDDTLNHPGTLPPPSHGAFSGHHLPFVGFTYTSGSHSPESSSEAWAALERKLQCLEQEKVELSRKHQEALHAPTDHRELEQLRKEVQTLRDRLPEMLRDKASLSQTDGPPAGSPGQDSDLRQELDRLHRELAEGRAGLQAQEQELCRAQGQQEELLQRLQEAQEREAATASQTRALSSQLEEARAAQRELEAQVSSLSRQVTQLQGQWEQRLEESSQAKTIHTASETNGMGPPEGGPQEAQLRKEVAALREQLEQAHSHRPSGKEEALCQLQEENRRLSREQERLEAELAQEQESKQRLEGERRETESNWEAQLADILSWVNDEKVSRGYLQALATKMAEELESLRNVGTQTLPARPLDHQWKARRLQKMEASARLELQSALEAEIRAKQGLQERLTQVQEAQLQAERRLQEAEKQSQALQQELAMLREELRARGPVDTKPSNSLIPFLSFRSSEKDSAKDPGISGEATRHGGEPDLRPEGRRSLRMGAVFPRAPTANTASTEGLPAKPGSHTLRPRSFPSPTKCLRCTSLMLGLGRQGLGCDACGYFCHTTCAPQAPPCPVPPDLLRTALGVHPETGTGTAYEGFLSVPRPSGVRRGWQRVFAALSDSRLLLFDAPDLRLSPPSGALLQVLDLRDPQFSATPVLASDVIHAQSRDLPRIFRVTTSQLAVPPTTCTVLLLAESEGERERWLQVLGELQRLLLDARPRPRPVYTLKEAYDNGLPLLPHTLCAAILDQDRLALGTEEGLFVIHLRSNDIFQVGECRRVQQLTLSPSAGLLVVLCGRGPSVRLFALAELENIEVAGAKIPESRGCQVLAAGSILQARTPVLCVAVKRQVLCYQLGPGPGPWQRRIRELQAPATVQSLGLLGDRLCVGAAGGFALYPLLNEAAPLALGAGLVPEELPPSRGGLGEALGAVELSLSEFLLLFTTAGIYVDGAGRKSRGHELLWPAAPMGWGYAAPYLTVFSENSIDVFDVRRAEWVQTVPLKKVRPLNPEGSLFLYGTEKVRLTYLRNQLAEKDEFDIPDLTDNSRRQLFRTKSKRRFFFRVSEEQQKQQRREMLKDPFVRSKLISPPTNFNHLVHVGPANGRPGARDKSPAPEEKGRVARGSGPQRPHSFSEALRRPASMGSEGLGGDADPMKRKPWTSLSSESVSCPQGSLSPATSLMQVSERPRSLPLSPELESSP

CSc1cccnc1N1CCN(Cc2nc3ccccc3[nH]2)CC1 [A-769]
inactive: [1] 98% | [2] 89% | [3] 87% | [4] 100% | [5] 87% | [6] 71% | [7] 71% | [8] 72% | [9] 100% | [10] 67% | [11] 91% | [12] 92% | [13] 100% | [14] 100% | [15] 66% | [16] 100% | [17] 100% | [18] 91% | [19] 72% | [20] 100% | [21] 100% | [22] 100% | [23] 65% | [24] 100% | [25] 91% | [26] 100% | [27] 100% | [28] 100% | [29] 74% | [30] 100% | [31] 100% | [32] 81% | [33] 100% | [34] 92% | [35] 83% | [36] 72% | [37] 100% | [38] 80% | [39] 100% | [40] 99% | [41] 77% | [42] 98% | [43] 85% | [44] 74% | [45] 94%

c1ccc(N2CCN(Cc3nc4ccccc4[nH]3)CC2)nc1 [ABT-724]
inactive: [1] 100% | [2] 100% | [3] 100% | [4] 100% | [5] 100% | [6] 100% | [7] 100% | [8] 100% | [9] 72% | [10] 100% | [11] 100% | [12] 100% | [13] 93% | [14] 100% | [15] 100% | [16] 89% | [17] 100% | [18] 100% | [19] 100% | [20] 100% | [21] 100% | [22] 100% | [23] 100% | [24] 95% | [25] 97% | [26] 100% | [27] 98% | [28] 95% | [29] 100% | [30] 96% | [31] 100% | [32] 100% | [33] 86% | [34] 100% | [35] 100% | [36] 83% | [37] 100% | [38] 100% | [39] 100% | [40] 100% | [41] 78% | [42] 93% | [43] 100% | [44] 100% | [45] 100%
